Article PMC8344761 (Journal of Enzyme Inhibition and Medicinal Chemistry, 2021)

Legend:
A-Raf = biological target: T1, A-Raf (Homo sapiens, UniProt P10398); assay: Raf kinase assay (Kinase HotSpot, Reaction Biology Corp.); type: biochemical; conditions: fixed concentration 1 μM; mean of two independent experiments
T1 sequence (P10398 1-606): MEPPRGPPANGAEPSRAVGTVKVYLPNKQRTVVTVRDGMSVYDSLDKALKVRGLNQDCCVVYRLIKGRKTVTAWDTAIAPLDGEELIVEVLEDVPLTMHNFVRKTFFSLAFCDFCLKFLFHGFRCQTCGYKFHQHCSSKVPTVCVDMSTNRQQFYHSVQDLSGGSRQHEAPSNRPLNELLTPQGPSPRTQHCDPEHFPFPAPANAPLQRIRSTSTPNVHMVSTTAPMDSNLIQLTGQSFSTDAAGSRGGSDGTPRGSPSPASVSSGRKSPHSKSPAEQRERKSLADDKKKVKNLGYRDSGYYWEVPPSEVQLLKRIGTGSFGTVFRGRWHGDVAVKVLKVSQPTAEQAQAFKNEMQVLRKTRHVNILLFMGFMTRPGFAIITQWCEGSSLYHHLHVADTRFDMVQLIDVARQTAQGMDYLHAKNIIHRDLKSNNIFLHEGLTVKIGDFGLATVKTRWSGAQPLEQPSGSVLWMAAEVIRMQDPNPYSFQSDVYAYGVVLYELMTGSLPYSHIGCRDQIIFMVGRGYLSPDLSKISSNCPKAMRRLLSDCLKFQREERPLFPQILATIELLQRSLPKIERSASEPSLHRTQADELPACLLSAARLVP
Procedure: Compounds were delivered into each Raf reaction, followed ∼20 min later by addition of a mixture of ATP and [γ-^33P-ATP] (specific activity approx. 500 cpm/pmol, concentration as required) to a final concentration of 10 µM. […] Then, the reaction was spotted onto a P30 filtermat, and unbound phosphate was removed by washing three times for 5 min in 75 mM phosphoric acid and once in methanol prior to drying and scintillation counting. […] IC50 values and curve fits were obtained using Prism (GraphPad Software, La Jolla, CA).

B-Raf (V600E) = B-Raf (V600E) (Homo sapiens, UniProt P15056, V600E); assay: as above; type: biochemical; conditions: fixed concentration 1 μM; mean of two independent experiments; B-Raf (V599E)
Procedure: (§1) Compounds were delivered into each Raf reaction, followed ∼20 min later by addition of a mixture of ATP and [γ-^33P-ATP] (specific activity approx. 500 cpm/pmol, concentration as required) to a final concentration of 10 µM. After incubation for 40 min at 25 °C, the reaction was stopped by the addition of a 3% phosphoric acid solution. Then, the reaction was spotted onto a P30 filtermat, and unbound phosphate was removed by washing three times for 5 min in 75 mM phosphoric acid and once in methanol prior to drying and scintillation counting. […] IC50 values and curve fits were obtained using Prism (GraphPad Software, La Jolla, CA).

C-Raf = C-Raf (Homo sapiens, UniProt P04049); assay: as above; type: biochemical; conditions: fixed concentration 1 μM; mean of two independent experiments; read-out: Inhibition (%) C-Raf
Procedure: as §1

B-Raf = B-Raf (Homo sapiens, UniProt P15056); assay: as above; type: biochemical; conditions: fixed concentration 1 μM; mean of two independent experiments
Procedure: as §1

Sequence of B-Raf (V600E) (P15056 whole entry V600E): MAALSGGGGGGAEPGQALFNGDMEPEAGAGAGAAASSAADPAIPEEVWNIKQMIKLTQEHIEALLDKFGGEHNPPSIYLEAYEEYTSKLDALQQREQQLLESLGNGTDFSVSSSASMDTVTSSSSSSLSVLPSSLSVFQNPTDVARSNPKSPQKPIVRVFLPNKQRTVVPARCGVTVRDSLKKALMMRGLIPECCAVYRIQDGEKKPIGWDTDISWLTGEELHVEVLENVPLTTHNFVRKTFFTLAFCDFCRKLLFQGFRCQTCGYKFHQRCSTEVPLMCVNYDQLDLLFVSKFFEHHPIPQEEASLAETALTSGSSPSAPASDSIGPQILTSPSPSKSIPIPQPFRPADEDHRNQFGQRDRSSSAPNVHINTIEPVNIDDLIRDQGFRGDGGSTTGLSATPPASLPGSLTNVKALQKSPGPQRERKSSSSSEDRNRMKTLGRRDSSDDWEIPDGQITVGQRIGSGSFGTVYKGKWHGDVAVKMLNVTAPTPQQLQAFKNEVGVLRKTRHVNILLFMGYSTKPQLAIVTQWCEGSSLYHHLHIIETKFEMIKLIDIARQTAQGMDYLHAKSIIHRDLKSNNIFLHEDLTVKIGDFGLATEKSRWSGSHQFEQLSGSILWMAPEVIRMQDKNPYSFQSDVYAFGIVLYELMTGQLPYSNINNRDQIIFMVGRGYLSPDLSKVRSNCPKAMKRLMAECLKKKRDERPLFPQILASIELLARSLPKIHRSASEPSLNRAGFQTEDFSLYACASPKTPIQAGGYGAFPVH
Sequence of B-Raf (P15056 whole entry): as the sequence (P15056 whole entry V600E) above, with E600V counted along it
Sequence of C-Raf (P04049 whole entry): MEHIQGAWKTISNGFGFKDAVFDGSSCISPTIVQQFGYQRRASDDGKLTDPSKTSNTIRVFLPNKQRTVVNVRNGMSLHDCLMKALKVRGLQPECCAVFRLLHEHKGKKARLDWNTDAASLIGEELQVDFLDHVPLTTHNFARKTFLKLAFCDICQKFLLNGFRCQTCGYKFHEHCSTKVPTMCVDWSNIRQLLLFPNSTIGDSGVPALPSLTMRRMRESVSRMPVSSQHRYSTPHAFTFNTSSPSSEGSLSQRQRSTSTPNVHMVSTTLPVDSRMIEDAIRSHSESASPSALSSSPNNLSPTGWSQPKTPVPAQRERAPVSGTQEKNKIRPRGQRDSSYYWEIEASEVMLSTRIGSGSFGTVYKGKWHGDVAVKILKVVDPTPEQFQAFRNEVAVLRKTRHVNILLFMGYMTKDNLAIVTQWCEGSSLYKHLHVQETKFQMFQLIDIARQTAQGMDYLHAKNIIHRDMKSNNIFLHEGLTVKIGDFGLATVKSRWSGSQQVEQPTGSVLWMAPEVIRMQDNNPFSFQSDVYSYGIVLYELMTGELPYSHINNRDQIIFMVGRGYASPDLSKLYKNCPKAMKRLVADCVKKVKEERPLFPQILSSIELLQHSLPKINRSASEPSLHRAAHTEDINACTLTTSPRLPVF

Compound	melting point [°C]	inhibition at 1 µM (A-Raf) [%]	inhibition at 1 µM (B-Raf (V600E)) [%]	inhibition at 1 µM (C-Raf) [%]	inhibition at 1 µM (B-Raf) [%]
CNC(=O)c1cc(Oc2c(C)nc(N)c(C)c2C)ccn1 [Compound 3, 4-((6-Amino-2,4,5-trimethylpyridin-3-yl)oxy)-N-methylpicolinamide]	193	17.6	9.4	0	-15.4
CNC(=O)c1cc(Oc2c(C)nc(NC(=O)Nc3ccc(Cl)cc3)c(C)c2C)ccn1 [Compound 5, 4-((6–(3-(4-Chlorophenyl)ureido)-2,4,5-trimethylpyridin-3-yl)oxy)-N-methylpicolinamide]	248	70.2	69.4	83.1	63
CNC(=O)c1cc(Oc2c(C)nc(NC(=O)Nc3ccccc3)c(C)c2C)ccn1 [Compound 7, N-Methyl-4-((2,4,5-trimethyl-6-(3-phenylureido)pyridin-3-yl)oxy)picolinamide]	229	49.3	48	46.4	24.8
CNC(=O)c1cc(Oc2c(C)nc(NC(=O)Nc3ccc(F)cc3)c(C)c2C)ccn1 [Compound 8, 4-((6-(3-(4-Fluorophenyl)ureido)-2,4,5-trimethylpyridin-3-yl)oxy)-N-methylpicolinamide]	253	78.4	77.9	78.2	61.5
CNC(=O)c1cc(Oc2c(C)nc(NC(=O)Nc3ccc(Br)cc3)c(C)c2C)ccn1 [Compound 9, 4-((6–(3-(4-Bromophenyl)ureido)-2,4,5-trimethylpyridin-3-yl)oxy)-N-methylpicolinamide]	268	49.9	58.9	74.6	40.8
CNC(=O)c1cc(Oc2c(C)nc(NC(=O)Nc3ccc([N+](=O)[O-])cc3)c(C)c2C)ccn1 [Compound 10, N-Methyl-4-((2,4,5-trimethyl-6-(3-(4-nitrophenyl)ureido)pyridin-3-yl)oxy)picolinamide]	262	61.5	74.7	83.1	60.4
CNC(=O)c1cc(Oc2c(C)nc(NC(=O)Nc3ccc(C(F)(F)F)cc3)c(C)c2C)ccn1 [Compound 11, N-Methyl-4-((2,4,5-trimethyl-6-(3-(4-(trifluoromethyl)phenyl)ureido)pyridin-3-yl)oxy)picolinamide]	254	66.3	71.9	90.4	66.8

Other lines, results leading:

melting point [°C]	inhibition at 1 µM (A-Raf) [%]	inhibition at 1 µM (B-Raf (V600E)) [%]	inhibition at 1 µM (C-Raf) [%]	inhibition at 1 µM (B-Raf) [%]	Compound
195	7.8	13.3	–	-14.5	CNC(=O)c1cc(Oc2c(C)nc(NC(=O)NCc3ccccc3)c(C)c2C)ccn1 [Compound 18, 4-((6-(3-Benzylureido)-2,4,5-trimethylpyridin-3-yl)oxy)-N-methylpicolinamide]
207	-5.1	–	1.7	-9.2	CCCNC(=O)Nc1nc(C)c(Oc2ccnc(C(=O)NC)c2)c(C)c1C [Compound 19, N-Methyl-4-((2,4,5-trimethyl-6-(3-propylureido)pyridin-3-yl)oxy)picolinamide]
187	9.4	2.6	5.7	–	CNC(=O)c1cc(Oc2c(C)nc(NC(=O)NS(=O)(=O)c3ccc(C)cc3)c(C)c2C)ccn1 [Compound 22, N-Methyl-4-((2,4,5-trimethyl-6-(3-tosylureido)pyridin-3-yl)oxy)picolinamide]
242	7.9	8.7	-7.7	–	Cc1nc(NC(=O)Nc2ccc(Cl)c(C(F)(F)F)c2)c(C)c(C)c1O [Compound 25, 1-(4-Chloro-3-(trifluoromethyl)phenyl)-3-(5-hydroxy-3,4,6-trimethylpyridin-2-yl)urea]
